{
  "source": "patent US7939057B2",
  "about": "“Methods and compositions for modulating the mobilization of stem cells” (Mount Sinai School of Medicine, priority 2006, dated 2011)",
  "key": {"[1]": {"system": "hematopoietic stem and progenitor cells (HSPCs)", "experiment": "G-CSF-induced mobilization of hematopoietic progenitors (circulating CFU-C)", "assay_type": "in vivo, mice", "details": "for G-CSF-induced mobilization with clenbuterol: clenbuterol 2 mg/kg/day i.p. two days before and during G-CSF", "method": "(§1) To induce HSPC mobilization, mice were injected with recombinant human G-CSF (Filgrastim, Amgen, Thousand Oaks, Calif., 250 μg/kg/day, every 12 hours, 8 divided doses, s.c.) in PBS supplemented with 0.1% endotoxin free bovine serum albumin (BSA) or fucoidan (Sigma; 2 doses of 100 mg/kg with 2 h interval, i.p.) in PBS. Blood was harvested 3 h (G-CSF) or 1 h (fucoidan). CFU-C assays were carried out as previously described (Katayama, Y., and Frenette, P. S. (2003). Galactocerebrosides are required postnatally for stromal-dependent bone marrow lymphopoiesis. Immunity 18, 789-800).\nA chronic guide cannula (1.0 mm) was implanted stereotaxically into the lateral ventricle (coordinates AP, −0.7 mm; DV, −2.4 mm; ML, 1.5 mm, from bregma). One week after implantation, mice received a reduced dose of G-CSF (25 μg/kg daily for 4 doses) either by ICV infusion (rate: 0.4 μL/min) or by s.c. injection.\n(§2) Newborn C57BL/6 mice were injected s.c. with 6OHDA (100 mg/kg, Sigma) or vehicle (saline) on postnatal days 2, 4, 6, 8 and 9. HSPC mobilization was induced at 3 weeks of age. For SNS disruption in adult C57BL6 mice, 4 week-old animals were injected i.p. with 2 doses of 6OHDA or vehicle, 100 mg/kg on day 0, 250 mg/kg on day 2, and G-CSF treatment was begun on day 5. For β-adrenergic receptor blockade, 4 week-old C57BL/6 mice were treated with propranolol (0.5 g/L in drinking water, Sigma) or control pure water for 3 weeks prior to mobilization. For rescue experiments, clenbuterol (2 mg/kg/day, i.p.) was injected starting day −2 prior to and continued during G-CSF treatment."}, "hematopoietic progenitor": {"system": "hematopoietic progenitor", "experiment": "AMD3100-induced hematopoietic progenitor mobilization (stem cell egress)", "assay_type": "in vivo, C57BL/6 mice", "method": "Studies were done to determine the effect of destruction of dopaminergic and noradrenergic neurons on stem cell egress. In these studies, newborn C57BL/6 mice were injected subcutaneously with 6OHDA (100 mg/kg, Sigma) or vehicle (normal saline) on postnatal days 2, 4, 6, 8, and 9. Hematopoietic progenitor mobilization was induced at 34 weeks of age, by subcutaneous injection of AMD3100 (5 mg/kg) in normal saline. Peripheral blood was harvested retroorbitally one hour post injection. P-value was calculated using two-tailed Student's t-test assuming unequal variances.\nStudies were done to determine the effect of the beta agonist clenbuterol on stem cell egress. In this study, all drugs were dissolved in normal saline (0.9% w/v NaCl), with a delivery volume of 10 μL/g body mass. 10 μl/g saline i.p. or 2 mg/kg clenbuterol i.p. were given to adult (8-10 week old) C57BL6 mice 1 hour prior to hematopoietic progenitor mobilization induced by […] s.c. Peripheral blood was harvested retroorbitally one hour post AMD3100 injection. P-value was calculated using two-tailed Student's t-test assuming unequal variances."}, "[2]": {"system": "catecholaminergic neurons", "experiment": "Tissue catecholamines after 6-hydroxydopamine treatment (HPLC, heart)", "assay_type": "in vivo, C57BL/6 mice", "details": "5 week-old C57BL6 mice treated perinatally with 6OHDA, n=3, p<0.05 vs PBS", "method": "as §2\nHearts from 5 week-old C57BL6 mice treated perinatally with 6-hydroxydopamine (6OHDA) or PBS control were homogenized in 0.1 M trichloroacetic acid containing 10 mM sodium acetate, 0.1 mM EDTA, 1 μM isoproterenol (as internal standard), and 10.5% methanol (pH 3.8). Catecholamine levels were determined by HPLC at the Neurochemistry Core Lab, Vanderbilt University's Center for Molecular Neuroscience research (Nashville, Tenn.). * p<0.05 compared with PBS control. n=3 mice."}, "circulating tumor cells": {"system": "circulating tumor cells", "details": "AMD3100 5 mg/Kg, blood 1 h later; planned experiment", "description": "Luciferase expression will allow us to monitor distant metastases whereas GFP expression will permit to quantify the number of circulating tumor cells under baseline conditions and following treatment with stem cell “mobilizers”. Firstly, we will evaluate the effect of CXCR4 inhibition, using the specific antagonist AMD3100 on circulating tumor cells. Blood from NOD/SCID mice bearing tumors (day 35 for PC3lucGFP, day 15 for PC3MlucGFP) will be harvested at baseline to evaluate steady-state levels of circulating tumor cells. Mice will then be injected with AMD3100 at a dose of 5 mg/Kg and blood will be harvested 1 h later to evaluate the number of circulating tumor cells. […] To quantify the absolute counts of tumor cells, we will determine the number of circulating nucleated cells using an automatic cell counter (available in the PI's laboratory), and the proportion of GFP+ cells will be evaluated by flow cytometry in which a large sampling (>500,000 events) will be acquired owing to the rarity of circulating tumor cells."}, "norepinephrine": {"system": "norepinephrine", "experiment": "Norepinephrine turnover in hearts after AMPT", "assay_type": "in vivo, mice", "details": "AMPT 300 mg/kg, mean±sem, n=4-5", "method": "FIG. 11. Norepinephine turnover in tissues following G-CSF administration in Cgt littermates. • To assess turnover rate, Cgt were administered the catecholamine synthesis inhibitor α-methyl-p-tyrosine (AMPT, 300 mg/kg, Sigma) or were left untreated. Animals were sacrificed 4 h after AMPT injection. Hearts were rapidly removed, weighed, frozen in liquid nitrogen and stored at −80° C. for norepinephrine measurements. NE levels were determined by HPLC at the Neurochemistry Core Lab, Vanderbilt University's Center for Molecular Neuroscience Research (Nashville, Tenn.). Under steady-state conditions, the decline of norepinephrine (NE) reflects the synthesis rate and the sympathetic tone. n=4-5 mice per group; * p<0.05.\nDecline in tissue levels of norepinephrine obeys first order kinetics (Brodie, B. B., Costa, E., Dlabac, A., Neff, N. H., and Smookler, H. H. (1966). Application of steady state kinetics to the estimation of synthesis rate and turnover time of tissue catecholamines. J Pharmacol Exp Ther 154, 493-498): […]"}, "SDF-1": {"system": "SDF-1", "experiment": "SDF-1 secretion by stromal cell line MS-5 (ELISA)", "assay_type": "cell-based", "details": "72 h exposure of MS-5 cells", "excerpt": "Studies were also done to determine the effect of norepinephrine or a beta receptor agonist on SDF-1 secretion by a stromal cell line and to determine if there is a correlation with stem cell egress. […] This corresponds with an increase in the stem cell egress."}, "[3]": {"system": "hematopoietic stem and progenitor cells (HSPCs)", "experiment": "Fucoidan-induced mobilization of hematopoietic progenitors (circulating CFU-C)", "assay_type": "in vivo", "details": "Cgt−/− mice; 2 doses of 100 mg/kg i.p.", "method": "as §1"}},
  "note": "Structures can show the parent of a compound that is named as a salt. Marks after values point to notes of the source that are not given here.",
  "data": [
    {"molecule": "NCCc1cc(O)c(O)cc1O", "note": "[6OHDA, 6-hydroxydopamine]", "values": [
      {"measurement": "G-CSF-elicited mobilization", "setting": "[1]; 6OHDA-treated adult C57BL/6 mice", "value": "significantly reduced"},
      {"measurement": "number of HSPCs mobilized by G-CSF", "setting": "[1]; perinatally 6OHDA-lesioned mice vs vehicle littermates", "value": "dramatically reduced"},
      {"measurement": "baseline CFU-C counts per bone", "setting": "[1]; perinatally 6OHDA-treated mice, steady-state BM", "value": "did not alter"},
      {"measurement": "stem cell egress induced by AMD3100", "setting": "hematopoietic progenitor; C57BL/6 mice given 6OHDA 100 mg/kg s.c. postnatal days 2, 4, 6, 8, 9, AMD3100 5 mg/kg s.c. at 34 weeks of age, blood one hour post injection", "value": "decreased in a dose dependent manner"},
      {"measurement": "Dopamine", "setting": "[2]", "value": "10 ± 10* pmol/mg tissue"},
      {"measurement": "Epinephrine", "setting": "[2]", "value": "41 ± 20* pmol/mg tissue"},
      {"measurement": "Norepinephrine", "setting": "[2]", "value": "49 ± 10* pmol/mg tissue"}
    ]},
    {"molecule": "c1cc(CN2CCCNCCNCCCNCC2)ccc1CN1CCCNCCNCCCNCC1", "note": "[AMD3100, 1,1′-[1,4-phenylene-bis(methylene)]-bis(1,4,8,11-tetra-azacyclotetradecane) octahydrochloride dehydrate]", "values": [
      {"measurement": "number of circulating tumor cells", "setting": "circulating tumor cells", "value": "will increase the number of circulating tumor cells"}
    ]},
    {"molecule": "CC(N)(Cc1ccc(O)cc1)C(=O)O", "note": "(stereo not drawn) [AMPT, α-methyl-p-tyrosine]", "values": [
      {"measurement": "Level after AMPT inhibition, 4 h (norepinephrine, heart)", "setting": "norepinephrine; Cgt+/+, Cgt+/− mice", "value": "198 ± 38", "unit": "pg/mg wet weight"},
      {"measurement": "Level after AMPT inhibition, 4 h (norepinephrine, heart)", "setting": "norepinephrine; Cgt−/− mice", "value": "335 ± 32", "unit": "pg/mg wet weight"}
    ]},
    {"molecule": "CC(C)NCC(O)c1ccc(O)c(O)c1", "note": "(stereo not drawn) [Isoproterenol]", "values": [
      {"measurement": "SDF-1 secretion", "setting": "SDF-1", "value": "decreased in a dose-dependent manner"}
    ]},
    {"molecule": "CC(C)(C)NCC(O)c1cc(Cl)c(N)c(Cl)c1", "note": "(stereo not drawn) [clenbuterol]", "values": [
      {"measurement": "G-CSF-induced mobilization with clenbuterol", "setting": "[1]; Dbh+/− controls", "value": "further enhanced mobilization"},
      {"measurement": "G-CSF-induced mobilization with clenbuterol", "setting": "[1]; Dbh−/− mice", "value": "rescued in part the mobilization defect"},
      {"measurement": "mobilization by clenbuterol by itself", "setting": "[1]; same dose schedule, no G-CSF, data not shown", "value": "did not trigger mobilization"},
      {"measurement": "stem cell egress induced by AMD3100 with clenbuterol", "setting": "hematopoietic progenitor; adult C57BL6 mice, clenbuterol 2 mg/kg i.p. 1 hour prior to AMD3100 s.c., blood one hour post AMD3100", "value": "boost stem cell egress in a dose dependent manner"}
    ]},
    {"molecule": "NC[C@H](O)c1ccc(O)c(O)c1", "note": "[norepinephrine]", "values": [
      {"measurement": "SDF-1 secretion", "setting": "SDF-1", "value": "decreased in a dose-dependent manner"}
    ]},
    {"molecule": "CC(C)NCC(O)COc1cccc2ccccc12", "note": "(stereo not drawn) [propranolol, 1-[(1-Methylethyl)amino]-3-(1-naphthalenyloxy)-2-propanol]", "values": [
      {"measurement": "reduction of the number of HSPCs elicited by G-CSF", "setting": "[1]; C57BL6 mice treated for three weeks with propranolol (0.5 g/L in drinking water)", "value": "> 20", "unit": "%"}
    ]},
    {"molecule": "fucoidan", "values": [
      {"measurement": "CFU-C mobilization by fucoidan", "setting": "[3]", "value": "not mobilized"}
    ]}
  ]
}
